{
  "source": "ChEMBL document CHEMBL4334526",
  "about": "“Synthesis of Peptoid-Based Class I-Selective Histone Deacetylase Inhibitors with Chemosensitizing Properties” (J Med Chem, 2019)",
  "key": {"[1]": {"molecular_target": "T1, Class 1 histone deacetylase (Homo sapiens, UniProt Q13547+O15379+Q92769+Q9BY41)", "T1 sequence (O15379 whole entry, looked up)": "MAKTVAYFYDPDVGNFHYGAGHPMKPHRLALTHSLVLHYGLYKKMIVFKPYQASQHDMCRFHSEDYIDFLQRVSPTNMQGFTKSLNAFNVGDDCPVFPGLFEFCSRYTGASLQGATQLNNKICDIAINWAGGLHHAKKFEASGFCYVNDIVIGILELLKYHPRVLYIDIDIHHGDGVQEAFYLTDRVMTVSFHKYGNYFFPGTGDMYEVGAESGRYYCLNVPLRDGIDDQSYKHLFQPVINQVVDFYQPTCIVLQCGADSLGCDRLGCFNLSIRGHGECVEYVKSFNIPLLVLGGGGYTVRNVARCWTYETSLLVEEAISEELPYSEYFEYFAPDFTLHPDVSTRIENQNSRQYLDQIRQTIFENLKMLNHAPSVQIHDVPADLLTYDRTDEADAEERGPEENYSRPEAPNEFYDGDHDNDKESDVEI", "T1 sequence (Q13547 whole entry, looked up)": "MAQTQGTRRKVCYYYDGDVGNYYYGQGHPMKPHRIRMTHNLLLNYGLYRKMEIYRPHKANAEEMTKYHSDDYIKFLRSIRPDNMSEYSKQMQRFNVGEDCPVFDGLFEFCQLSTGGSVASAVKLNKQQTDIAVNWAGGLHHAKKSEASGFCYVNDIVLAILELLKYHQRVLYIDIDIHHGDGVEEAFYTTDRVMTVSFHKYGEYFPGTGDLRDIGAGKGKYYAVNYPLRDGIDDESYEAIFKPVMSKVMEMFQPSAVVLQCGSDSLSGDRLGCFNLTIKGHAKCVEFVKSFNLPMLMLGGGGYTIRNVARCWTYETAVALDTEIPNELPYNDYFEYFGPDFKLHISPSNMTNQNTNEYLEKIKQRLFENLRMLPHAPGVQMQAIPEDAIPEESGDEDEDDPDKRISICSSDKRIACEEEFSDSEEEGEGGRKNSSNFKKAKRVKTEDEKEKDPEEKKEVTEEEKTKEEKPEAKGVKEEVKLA", "T1 sequence (Q92769 whole entry, looked up)": "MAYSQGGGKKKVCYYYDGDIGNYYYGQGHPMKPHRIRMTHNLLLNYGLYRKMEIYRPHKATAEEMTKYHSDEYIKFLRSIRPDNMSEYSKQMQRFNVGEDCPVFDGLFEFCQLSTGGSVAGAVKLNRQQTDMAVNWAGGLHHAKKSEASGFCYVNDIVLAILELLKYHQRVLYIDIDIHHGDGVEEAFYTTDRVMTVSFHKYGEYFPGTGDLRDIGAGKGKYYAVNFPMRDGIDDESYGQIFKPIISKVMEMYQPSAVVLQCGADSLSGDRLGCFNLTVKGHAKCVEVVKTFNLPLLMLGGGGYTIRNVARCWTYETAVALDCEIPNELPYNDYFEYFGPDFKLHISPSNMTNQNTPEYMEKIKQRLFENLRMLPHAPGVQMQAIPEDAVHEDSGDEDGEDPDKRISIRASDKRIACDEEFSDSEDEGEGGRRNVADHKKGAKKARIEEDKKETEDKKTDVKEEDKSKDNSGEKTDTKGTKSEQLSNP", "T1 sequence (Q9BY41 whole entry, looked up)": "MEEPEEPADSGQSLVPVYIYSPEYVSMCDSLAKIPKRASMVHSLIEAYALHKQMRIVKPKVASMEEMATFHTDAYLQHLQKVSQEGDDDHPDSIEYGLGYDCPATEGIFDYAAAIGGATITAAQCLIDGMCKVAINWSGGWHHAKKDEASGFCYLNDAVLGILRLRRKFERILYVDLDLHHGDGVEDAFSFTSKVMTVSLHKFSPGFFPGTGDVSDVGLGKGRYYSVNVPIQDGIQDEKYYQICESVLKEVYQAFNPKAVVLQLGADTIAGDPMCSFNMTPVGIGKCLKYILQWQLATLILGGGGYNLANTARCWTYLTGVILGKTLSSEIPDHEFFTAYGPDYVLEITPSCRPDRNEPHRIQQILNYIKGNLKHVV", "test": "Inhibition of class 1 HDAC in human Cal27CisR cells assessed as potentiation of cisplatin-induced cytotoxicity by measuring combination index at 5 uM in presence of 10 uM cisplatin by MTT assay based Chou-Talalay analysis", "assay_type": "cell-based"}, "[2]": {"molecular_target": "T1, Class 1 histone deacetylase", "test": "Inhibition of class 1 HDAC in human CAL27 cells assessed as potentiation of cisplatin-induced cytotoxicity by measuring combination index at 5 uM in presence of 0.1 uM cisplatin by MTT assay based Chou-Talalay analysis", "assay_type": "cell-based", "details": "CAL-27"}, "[3]": {"molecular_target": "T1, Class 1 histone deacetylase", "test": "Inhibition of class 1 HDAC in human Cal27CisR cells assessed as potentiation of cisplatin-induced cytotoxicity by measuring combination index at 5 uM in presence of 100 uM cisplatin by MTT assay based Chou-Talalay analysis", "assay_type": "cell-based"}, "[4]": {"molecular_target": "T1, Class 1 histone deacetylase", "test": "Inhibition of class 1 HDAC in human Cal27CisR cells assessed as potentiation of cisplatin-induced cytotoxicity by measuring combination index at 5 uM in presence of […] cisplatin by MTT assay based Chou-Talalay analysis", "assay_type": "cell-based"}, "[5]": {"molecular_target": "T1, Class 1 histone deacetylase", "details": "CAL-27", "description": "Inhibition of class 1 HDAC in human CAL27 cells assessed as potentiation of cisplatin-induced cytotoxicity by measuring combination index at 0.1 uM in presence of 0.32 uM cisplatin by MTT assay based Chou-Talalay analysis"}, "[6]": {"molecular_target": "T1, Class 1 histone deacetylase", "details": "CAL-27", "remark": "listed apart in the source", "description": "Inhibition of class 1 HDAC in human CAL27 cells assessed as potentiation of cisplatin-induced cytotoxicity by measuring combination index at 0.25 uM in presence of 3.2 uM cisplatin by MTT assay based Chou-Talalay analysis"}, "[7]": {"test": "Induction of apoptosis in human Cal27CisR cells assessed as accumulation at sub-G1 phase at 100 uM measured after 48 hrs by propidium iodide staining based flow cytometry relative to control", "assay_type": "functional"}, "[8]": {"test": "Induction of apoptosis in human Cal27CisR cells assessed as caspase-3/7 activation at […] measured after 48 hrs by CellEvent caspase 3/7 green detection reagent/Hoechst 33342 staining based imaging analysis relative to control", "assay_type": "functional"}, "[9]": {"molecular_target": "T1, Class 1 histone deacetylase", "test": "Inhibition of class 1 HDAC in human Cal27CisR cells assessed as potentiation of cisplatin-induced apoptosis by measuring increase in accumulation at sub-G1 phase at […] preincubated for 48 hrs followed by cisplatin addition and measured after 24 hrs by propidium iodide staining based flow cytometry", "assay_type": "cell-based"}, "[10]": {"molecular_target": "T1, Class 1 histone deacetylase", "test": "Inhibition of class 1 HDAC in human CAL27 cells assessed as increase in histone H3 acetylation at […] measured after 24 hrs by immunoblot analysis", "assay_type": "cell-based", "details": "CAL-27"}},
  "note": "Active and inactive are the calls of the source. The rule behind the calls is not given here.",
  "data": [
    {"smiles": "Cc1cc(C)cc(C(=O)N(CCCCCC(=O)Nc2cc(-c3ccccc3)ccc2N)CC(=O)NCc2ccccc2)c1", "values": [
      {"measurement": "CI", "setting": "[1]", "value": 0.1},
      {"measurement": "CI", "setting": "[2]", "value": "< 0.2"},
      {"measurement": "CI", "setting": "[3]", "value": 0.05},
      {"measurement": "CI", "setting": "[4]", "value": "< 0.2"}
    ]},
    {"smiles": "CN(C)c1ccc(C(=O)N(CC(=O)NCc2ccccc2)Cc2ccc(C(=O)Nc3ccccc3N)cc2)cc1", "values": [
      {"measurement": "CI", "setting": "[5]", "value": "< 0.2"},
      {"measurement": "CI", "setting": "[6]", "value": 0.07},
      {"measurement": "Activity", "setting": "[7]", "value": 32.1, "unit": "%"}
    ]},
    {"smiles": "Cc1cc(C)cc(C(=O)N(CC(=O)NCc2ccccc2)Cc2ccc(C(=O)Nc3cc(-c4ccccc4)ccc3N)cc2)c1", "values": [
      {"measurement": "Activity", "setting": "[8]", "value": 5.96, "unit": "%"},
      {"measurement": "inhibition", "setting": "[9]", "value": "Active"},
      {"measurement": "inhibition", "setting": "[10]", "value": "Active"}
    ]}
  ]
}
